Measured values as given in patent publication US5814631A, “Quinazoline derivatives and applications thereof” (Suntory Limited, priority 1995, dated 1998).

How the values were obtained:
[1] = molecular target: T1, bovine pancreatic α-chymotrypsin (Bos taurus, UniProt P00766); assay: Measurement of chymotrypsin inhibitive activity (Ang I, HPLC); format: biochemical; conditions: for IC50: bovine pancreatic α-chymotrypsin, Ang I substrate, 37° C., 15 min, pH 7.5
T1 construct: purchased Sigma Co. Type II; host or cells: bovine pancreas

human heart chymase = molecular target: T2, human heart chymase (Homo sapiens, UniProt P23946); assay: biochemical; conditions: Chymase inhibitive activity (IC50), Ang I substrate, 37° C., 30 min, pH 7.5
T2 sequence (P23946 22-247): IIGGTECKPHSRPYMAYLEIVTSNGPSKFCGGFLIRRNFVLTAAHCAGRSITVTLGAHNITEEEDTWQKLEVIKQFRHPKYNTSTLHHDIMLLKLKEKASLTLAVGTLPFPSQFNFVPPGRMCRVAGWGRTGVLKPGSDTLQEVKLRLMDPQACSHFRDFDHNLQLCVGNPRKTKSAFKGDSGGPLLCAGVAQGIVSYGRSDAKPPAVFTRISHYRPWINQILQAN
Protocol: That is, to 10 μl of a 20 mM trisphosphate buffer (pH 7.5) containing 2MKCl were added 10 μl of purified chymase and 5 μl of a dimethylsulfoxide (hereinafter referred to as DMSO) solution of the test sample. The mixture was preincubated at 37° C. for 10 minutes, then 25 μl of a 1 mM Ang I solution was added and the mixture preincubated at 37° C. for 30 minutes. Next, 50 μl of 30% acetic acid was added to stop the enzymatic reaction. At the same time, a blind test was performed by adding, instead of the test sample solution, 5 μl of DMSO and performing the same reaction.
The reacted solution was subjected to high performance liquid chromatography using Develosil ODS-5 (made by Nomura Kagaku, .phi.4.6 mm×150 mm) and developed at a flow rate of 2.0 ml/min in 0.05% TFA by a straight concentration gradient raising the acetonitrile from 0% to 60% over 10 minutes. This was monitored by the absorbance at 210 nm and the peaks identified by comparison with standard samples of Ang I and Ang II. The peak areas were measured by an integrating meter to quantitatively analyze the Ang I and Ang II and calculate the chymase activity.

[2] = molecular target: T3, human neutrophil derived cathepsin G (Homo sapiens, UniProt P08311); assay: Measurement of cathepsin G inhibitive activity (conversion of Ang I to Ang II, HPLC); format: biochemical; conditions: Ang I substrate, 37° C., 30 min, pH 7.5
T3 sequence (P08311 21-244 limits assumed): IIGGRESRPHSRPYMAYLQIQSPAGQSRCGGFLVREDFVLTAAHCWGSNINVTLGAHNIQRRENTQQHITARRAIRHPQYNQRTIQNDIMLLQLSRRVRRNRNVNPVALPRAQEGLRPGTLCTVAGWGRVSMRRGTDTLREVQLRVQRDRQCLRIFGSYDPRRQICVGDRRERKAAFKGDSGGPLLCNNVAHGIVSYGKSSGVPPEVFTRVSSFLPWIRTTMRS

Row | SMILES | IC50 [1] [nM] | IC50 (human heart chymase) [nM] | IC50 [2] [nM] | inhibition at 100 µM ([1]; percent inhibition at 100 μM) [%]
1 | O=c1[nH]c2cc3ccccc3cc2c(=O)n1S(=O)(=O)c1ccc(Cl)cc1 [Example 35, 3-(4chlorobenzenesulfonyl)-2,4(1H,3H)-benzo[g]quinazolinedione] | 1400 | 2400 |  | 
2 | COc1cccc2c(=O)n(S(=O)(=O)c3ccc(Cl)cc3)c(=O)[nH]c12 [Example 7, 3-(4-chlorobenzenesulfonyl)-8-methoxy-2,4(1H,3H)-quinazolinedione] | 1900 | 23000 | 3200 | 
3 | Cc1cc2[nH]c(=O)n(S(=O)(=O)c3ccc(Cl)cc3)c(=O)c2cc1C [Example 21, 3-(4-chlorobenzenesulfonyl)-6,7-dimethyl-2,4(1H,3H)-quinazolinedione] | 8500 | 30000 | 37000 | 
4 | O=c1[nH]c2ccccc2c(=O)n1S(=O)(=O)c1ccc(Cl)cc1 [Example 23, 3-(4-chlorobenzenesulfonyl)-2,4(1H,3H)-quinazolinedione] | 12000 | 1600 | 3800 | 
5 | O=c1[nH]c2cc(F)ccc2c(=O)n1S(=O)(=O)c1ccc(Cl)cc1 [Example 31, 3-(4-chlorobenzenesulfonyl)-7-fluoro-2,4(1H,3H)-quinazolinedione] | 5700 | 1700 | 1100 | 
6 | Cn1c(=O)n(S(=O)(=O)c2ccc(Cl)cc2)c(=O)c2ccc(Cl)cc21 [Example 27, 7-chloro-3-(4-chlorobenzenesulfonyl)-1-methyl-2,4(1H,3H)-quinazolinedione] |  | 7000 | 16000 | 27
7 | O=C(O)c1cccc(S(=O)(=O)n2c(=O)[nH]c3cc(Cl)ccc3c2=O)c1 [Example 15, 3-(3-carboxybenzenesulfonyl)-7-chloro-2,4(1H,3H)-quinazolinedione] | 4800 | 2400 | 790 | 
8 | O=c1[nH]c2ccc(F)cc2c(=O)n1S(=O)(=O)c1ccc(Cl)cc1 [Example 33, 3-(4-chlorobenzenesulfonyl)-6-fluoro-2,4(1H,3H)-quinazolinedione] | 4600 | 1900 | 3600 | 
9 | C=CCOC(=O)c1ccc(S(=O)(=O)n2c(=O)[nH]c3cc(Cl)ccc3c2=O)cc1 [Example 5, 3-(4-allyloxycarbonylbenzenesulfonyl)-7-chloro-2,4(1H,3H)-quinazolinedione] | 2000 |  | 340 | 
10 | O=c1[nH]c2cc(Cl)ccc2c(=O)n1S(=O)(=O)c1ccc(OCCBr)cc1 [Example 145, 7-chloro-3-[4-(2-bromoethyloxy)benzenesulfonyl]-2,4(1H,3H)-quinazolinedione] |  | 1500 |  | 
11 | O=C(Cn1c(=O)n(S(=O)(=O)c2ccc(Cl)cc2)c(=O)c2ccc(Cl)cc21)Nc1cccc(OP(=O)(O)O)c1 [Example 105] |  | 25 |  | 
12 | CC(C)(C)OC(=O)C[n+]1cccc(NC(=O)Cn2c(=O)n(S(=O)(=O)c3ccc(Cl)cc3)c(=O)c3ccc(Cl)cc32)c1 [Example 83, 3-{[7-chloro-3-(4-chlorobenzenesulfonyl)-2,4(1H,3H)-quinazolinedion-1-yl]acetylamino}-(N-t-butoxycarbonylmethylpyridinium) bromide] |  | 38 |  | 

Continued by falling IC50 (human heart chymase), values first:

Row | IC50 [1] [nM] | IC50 (human heart chymase) [nM] | IC50 [2] [nM] | inhibition at 100 µM ([1]; percent inhibition at 100 μM) [%] | SMILES
13 |  | 580 |  |  | O=C(Cn1c(=O)n(S(=O)(=O)c2cccnc2)c(=O)c2ccc(Cl)cc21)Nc1cccnc1 [Example 123, [7-chloro-3-(pyridine-3-sulfonyl)-2,4-(1H,3H)-quinazolinedion-1-yl]-N-(3-pyridyl)acetamide]
14 |  | 560 |  |  | O=C(Cn1c(=O)n(S(=O)(=O)c2ccc(Cl)cc2)c(=O)c2ccc(Cl)cc21)Nc1ccc(CN2CCOCC2)cc1 [Example 44, [7-chloro-3-(4-chlorobenzenesulfonyl)-2,4(1H,3H)-quinazolinedion-1-yl]-N-(4-morpholinomethylphenyl)acetamide]
15 |  | 500 |  |  | N[C@@H](CC(=O)O)C(=O)NCc1ccc(NC(=O)Cn2c(=O)n(S(=O)(=O)c3ccc(Cl)cc3)c(=O)c3ccc(Cl)cc32)cc1 [Example 48, [7-chloro-3-(4-chlorobenzenesulfonyl)-2,4(1H,3H)-quinazolinedion-1-yl]-N-(4-α-L-aspartylaminomethylphenyl)acetamide]
16 |  | 420 |  |  | O=C(Cn1c(=O)n(S(=O)(=O)c2ccc(Cl)cc2)c(=O)c2ccc(Cl)cc21)Nc1ccc(C(=O)O)cc1 [Example 43, [7-chloro-3-(4-chlorobenzenesulfonyl)-2,4(1H,3H)-quinazolinedion-1-yl]-N-(4-carboxyphenyl)-acetamide]
17 |  | 370 |  |  | O=c1c2ccc(Cl)cc2n(Cc2ccccc2)c(=O)n1S(=O)(=O)c1ccc(Cl)cc1 [Example 59, 1-benzyl-7-chloro-3-(4-chlorobenzenesulfonyl)-2,4(1H,3H )-quinazolinedione]
18 |  | 330 |  |  | N[C@@H](CC(=O)NCc1ccc(NC(=O)Cn2c(=O)n(S(=O)(=O)c3ccc(Cl)cc3)c(=O)c3ccc(Cl)cc32)cc1)C(=O)O [Example 50, [7-chloro-3-(4-chlorobenzenesulfonyl)-2,4(1H,3H)-quinazolinedion-1-yl]-N-(4-β-L-aspartylaminomethylphenyl)acetamide]
19 |  | 220 |  |  | O=C(Cn1c(=O)n(S(=O)(=O)c2ccc(Cl)cc2)c(=O)c2ccc(Cl)cc21)NCc1ccncc1 [Example 81, [7-chloro-3-(4-chlorobenzenesulfonyl)-2,4 (1H,3H)-quinazolinedion-1-yl]-N-(4-picolyl)acetamide]
20 | 400 | 200 | 160 |  | COC(=O)c1ccc(S(=O)(=O)n2c(=O)[nH]c3cc(Cl)ccc3c2=O)cc1 [Example 19, 7-chloro-3-(4-methoxycarbonylbenzenesulfonyl)-2,4(1H,3H)-quinazolinedione]
21 |  | 180 |  |  | Nc1ccccc1Cn1c(=O)n(S(=O)(=O)c2ccc(Cl)cc2)c(=O)c2ccc(Cl)cc21 [Example 75, 1-(2-aminobenzyl)-7-chloro-3-(4-chlorobenzenesulfonyl)-2,4(1H,3H)-quinazolinedione]
22 |  | 160 |  |  | N#Cc1cccc(Cn2c(=O)n(S(=O)(=O)c3ccc(Cl)cc3)c(=O)c3ccc(Cl)cc32)c1 [Example 61, 7-chloro-3-(4-chlorobenzenesulfonyl)-1-(3-cyanobenzyl)-2,4(1H,3H)-quinazolinedione]
23 |  | 140 |  |  | O=C(Cn1c(=O)n(S(=O)(=O)c2ccc(Cl)cc2)c(=O)c2ccc(Cl)cc21)NCc1ccccc1 [Example 80, [7-chloro-3-(4-chlorobenzenesulfonyl)-2,4(1H,3H)-quinazolinedion-1-yl]-N-benzylacetamide]
24 |  | 130 |  |  | CC[n+]1cccc(NC(=O)Cn2c(=O)n(S(=O)(=O)c3ccc(OC)cc3)c(=O)c3ccc(Cl)cc32)c1 [Example 90]
25 |  | 110 |  |  | O=C(Nc1cccnc1)c1cccc(Cn2c(=O)n(S(=O)(=O)c3ccc(Cl)cc3)c(=O)c3ccc(Cl)cc32)c1 [Example 68, 7-chloro-3-(4-chlorobenzenesulfonyl)-1-(3-(3-pyridyl)aminocarbonyl-benzyl)-2,4(1H,3H)-quinazolinedione]
26 |  | 110 |  |  | O=C(Cn1c(=O)n(S(=O)(=O)c2ccc(Cl)cc2)c(=O)c2ccc(Cl)cc21)Nc1cccc(O)c1 [Example 40, [7-chloro-3-(4-chlorobenzenesulfonyl)-2,4(1H,3H)-quinazolinedion-1-yl]-N-(3-hydroxyphenyl)acetamide]
27 |  | 72 |  |  | O=C(Cn1c(=O)n(S(=O)(=O)c2ccc(Cl)cc2)c(=O)c2ccc(Cl)cc21)Nc1ccccn1 [Example 55, [7-chloro-3-(4-chlorobenzenesulfonyl)-2,4(1H,3H)-quinazolinedion-1-yl]-N-(2-pyridyl)acetamide]
